Publication PMC9249579, “Strawberry fruit FanCXE1 carboxylesterase is involved in the catabolism of volatile esters during the ripening process” (Horticulture Research, 2022)

test system: T1, FanCXE1; test: colorimetric naphthol release (DBLS reagent, […] nm); format: biochemical, Fragaria x ananassa; details: optimum pH (7-7.5) and temperature (25-30°C), 20 min; semipurified GST fusion
T1 construct: full-length, 981 bp ORF (326 residues from ORF length), 37 kDa; N-terminal GST fusion (pGEX-4T-1), tag kept, 64 kDa; E. coli, semipurified on GST-sepharose; Gly-82-Gly-83 oxyanion hole

Km [µM] | Compound
678 ± 170 | CC(=O)Oc1cccc2ccccc12 [α-Naphthyl acetate]
1580 ± 190 | CCCC(=O)Oc1cccc2ccccc12 [α-Naphthyl butyrate]
572 ± 250 | CCCCCC(=O)Oc1ccc2ccccc2c1 [β-Naphthyl hexanoate]
